Data as given in patent US20260274838A1 (PURDUE RESEARCH FOUNDATION, priority 2023, published 2026).
Entries after “also recorded” stand apart in the source; their conditions may differ.

Assays:
hSTING = target: T1, hSTING (Homo sapiens, UniProt Q86WV6); assay: STING based fluorescence polarization assay (F-c-di-GMP probe displacement); format: binding; conditions: 20 μM compound, 50 nM probe, 10 μM STING, 5 minutes; compared to HSD1077
T1 construct: SUMO; made in house; host or cells: E. coli Rosetta 2 (pLysS)
T1 sequence (Q86WV6 whole entry H232R): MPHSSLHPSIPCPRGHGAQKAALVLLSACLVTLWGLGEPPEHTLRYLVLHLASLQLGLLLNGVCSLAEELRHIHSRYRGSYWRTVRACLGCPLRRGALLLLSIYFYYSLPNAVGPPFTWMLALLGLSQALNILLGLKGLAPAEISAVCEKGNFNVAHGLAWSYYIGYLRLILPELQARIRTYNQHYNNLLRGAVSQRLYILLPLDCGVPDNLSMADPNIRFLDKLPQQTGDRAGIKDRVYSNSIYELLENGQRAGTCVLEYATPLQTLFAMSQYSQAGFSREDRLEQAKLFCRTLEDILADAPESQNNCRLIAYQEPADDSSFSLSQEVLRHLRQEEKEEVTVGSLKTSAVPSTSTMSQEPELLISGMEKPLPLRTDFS
Method: As a preliminary screen, 20 μM of compounds and 50 nM of the probe were incubated with 10 μM of STING for 5 minutes prior to evaluation of fluorescence anisotropy.
50 nM of 2′-Fluo-AHC-c-diGMP (Biolog) was incubated with 10 μM hSTING and 20 μM of screening compounds in dimethyl sulfoxide (DMSO) for 5 minutes in 1× Phosphate buffered saline at room temperature. […] Anisotropy was normalized via equating measurements with 0 μM hSTING to zero. […] Anisotropy was converted to a fraction bound by F-c-di-GMP using the following equation: […]
wherein r refers to the anisotropy value at 10 μM hSTING concentration upon compound addition, rfree refers to the anisotropy value of unbound fluorophore, and Q refers to the ratio of fluorescence intensities between bound and free fluorophore.

RAW ISG Blue cells = assay: Detection of IRF activation in RAW ISG Blue reporter cells (SEAP, QUANTI-Blue); format: cell-based, murine
Source text: To understand possible modulatory effects of compound HSD1077 on the cGAS-STING axis, the quantification of type 1 interferon expression in-cellulo upon compound HSD1077 treatment, investigated via a commercially available murine macrophage cell line RAW ISG Blue, which express secreted embryonic alkaline phosphatase (SEAP) under the control of an interferon-stimulated gene 54 (ISG54), inducible promoter. Upon the stimulation of pathways, such as cGAS-STING, which activate type 1 interferon production, SEAP would be expressed and can be quantified using a chromogenic detection substrate Quantiblue™. […] Excitedly, concentrations as low as 20 nM caused a noticeable decrease in interferon expression (FIG. 8).
After which, media from each respective well was collected for estimation of IRF activation via SEAP colorimetric assay via QUANTI-blue reagent (Invivogen) as per manufacturer protocols, using a clear 96 well flat bottom plate. 20 μL of the media obtained in each individual well was incubated with 180 μL of QUANTI-Blue™ Solution for 6 hours at 37° C. Absorbance (630 nm) of each well was quantified via Biotek Cytation 5 multi-mode reader.

THP-1 dual cells = assay: Detection of IRF activation in THP-1 dual reporter cells (Lucia luciferase, QUANTI-Luc), cGAMP stimulation; conditions: then 2'-3' cGAMP 24 hours
Method: Using THP-1 dual cell lines (Invivogen) featuring a luciferase gene under the control of an ISG54 inducible promoter, relative quantifications of type 1 interferon expression could be achieved through luciferase detection upon cGAS-STING pathway induction.
1×10^5 cells were seeded in 96 well plates and incubated for 24 hours. After which, cells were pre-treated with the drug compound for 1 hour, followed by 100 μM of 2′-3′ cGAMP for induction of the cGAS-STING pathway, and incubated for 24 hours. After which, cell suspension from each respective well was collected and for relative quantification of IRF activation via Lucia luciferase based luminescent assay via QUANTI-Luc™ reagent (Invivogen). 10 μL of the cell suspension obtained in each individual well was added to 50 μL of QUANTI-Luc™ Solution. […] Experiments were performed in biological triplicates, with data reported as the mean and standard deviation of 3 data points.

Raw ISG cells = assay: Western blotting of p-STING and p-IRF3 in Raw ISG cells; format: cell-based, murine; conditions: 5 μM for 4 hours, then 100 μM cGAMP 3 hours; vs DMSO+cGAMP
RAW ISG Blue macrophages = assay: Interferon-β mRNA levels in RAW cells via qPCR; format: cell-based, murine; conditions: pre-treatment 6 hours, then 100 μM cGAMP 3 hours; vs DMSO-treated cells stimulated with cGAMP
Method: FIG. 8B illustrates RAW ISG cells were pre-treated with either compound HSD1077 or compound H-151 as a positive control for 6 hours and subsequently stimulated with 100 μM of cGAMP for 3 hours for induction of Interferon-β. mRNA levels were quantified by RT-PCR. Gene expression was normalized with β-actin. Experiments were performed in two biological replicates. Error bars indicate the error of the mean of two independent experiments.
As a secondary analysis, mRNA levels of murine Interferon-β were also quantified via quantitative PCR (qPCR), upon cGAMP stimulation on RAW macrophages with or without compound HSD1077 pre-treatment.
1×10^6 cells were seeded in 6 well plates and incubated for 24 hours to allow for adherence. […] Cells were subsequently harvested, and RNA extraction was performed via the use of TRIzol reagent (Thermo-fisher). 1 μg of RNA harvested from each sample was used for cDNA synthesis using random hexamers, dNTPs, and superscript II reverse transcriptase (Thermo-fisher). […] The forward and reverse primers for the relative quantification of Interferon-β and β-actin were used as reported in Wiser C, Science Reports, 2020, 10, 1-11 and Wang M, ACS Chemical Biology, 2021, 16, 1663-1670, which are hereby specifically incorporated by reference for its teachings regarding the same.

STING binding (fraction of F-c-di-GMP probe bound, Fbound), in words (hSTING) | Molecule | further results
reduced STING binding | c1n[nH]cc1-c1nc2ccc3[nH]ncc3c2c2c1CCC2 [Compound 10] | 
significant decrease in STING binding | c1cc(-c2nc3ccc4[nH]ncc4c3c3c2CCCC3)n[nH]1 [Compound 19, 7-(1H-pyrazol-3-yl)-8,9,10,11-tetrahydro-3H-pyrazolo[4,3-a]phenanthridine] | 
reduced binding capabilities | Cn1cc(-c2nc3ccc4[nH]ncc4c3c3c2CCCC3)cn1 [Compound 20, 7-(1-Methyl-1H-pyrazol-4-yl)-8,9,10,11-tetrahydro-3H-pyrazolo[4,3-a]phenanthridine] | 
reduced binding capabilities | CN1CCN(C(=O)c2ccc(-c3nc4ccc5[nH]ncc5c4c4c3CCCC4)cc2)CC1 [Compound 21, (4-methylpiperazin-1-yl) (4-(8,9,10,11-tetrahydro-3H-pyrazolo[4,3-a]phenanthridin-7-yl)phenyl)methanone] | 
reduced binding capabilities | CC(=O)N1CCN(C(=O)c2ccc(-c3nc4ccc5[nH]ncc5c4c4c3CCCC4)cc2)CC1 [Compound 22, 1-(4-(4-(8,9,10,11-tetrahydro-3H-pyrazolo[4,3-a]phenanthridin-7-yl)benzoyl)piperazin-1-yl)ethan-1-one] | 
negatively impacted STING binding | CN1CCN(C(=O)c2ccc(-c3nc4ccc5[nH]ncc5c4c4c3CCCCC4)cc2)CC1 [Compound 23] | 
negatively impacted STING binding | CN1CCN(C(=O)c2ccc(-c3nc4ccc5[nH]ncc5c4c4c3CCC4)cc2)CC1 [Compound 24, (4-methylpiperazin-1-yl) (4-(3,8,9,10-tetrahydrocyclopenta[c]pyrazolo[4,3-f]quinolin-7-yl)phenyl)methanone] | 
negatively affected STING binding | CN1CCN(C(=O)c2ccc(-c3nc4c(F)cc5[nH]ncc5c4c4c3CCCC4)cc2)CC1 [Compound 26, (4-(5-fluoro-8,9,10,11-tetrahydro-3H-pyrazolo[4,3-a]phenanthridin-7-yl)phenyl) (4-methylpiperazin-1-yl)methanone] | 
generally retained STING binding | CN1CCN(C(=O)c2ccc(-c3nc4ccc5[nH]ncc5c4c4c3CCCC4)c(F)c2)CC1 [Compound 28, (3-fluoro-4-(8,9,10,11-tetrahydro-3H-pyrazolo[4,3-a]phenanthridin-7-yl)phenyl) (4-methylpiperazin-1-yl)methanone] | 
high probe displacement | CCn1nc(C)cc1C(=O)Nc1nc2cc(C(N)=O)cc(OC)c2n1C/C=C/Cn1c(NC(=O)c2cc(C)nn2CC)nc2cc(C(N)=O)cc(OCCCN3CCOCC3)c21 [DIABZI-3, reference compound] | 

Second part, the molecule before the results:

Molecule | STING binding (fraction of F-c-di-GMP probe bound, Fbound), in words (hSTING) | further results
7-(1H-pyrazol-4-yl)-8,9,10,11-tetrahydro-3H-imidazo[4,5-a]phenanthridine [Compound 17] | not well tolerated | 
COc1cc2nc(-c3cn[nH]c3)c3c(c2cc1OC)CCCC3 [Compound 2, 2,3-Dimethoxy-6-(1H-pyrazol-4-yl)-7,8,9,10-tetrahydrophenanthridine] | significant decrease in STING binding | 
c1n[nH]cc1-c1nc2ccc3c(c2c2c1CCCC2)OCO3 [Compound 3, 7-(1H-pyrazol-4-yl)-8,9,10,11-tetrahydro-[1,3]dioxolo[4,5-a]phenanthridine] | significant decrease in STING binding | 
Cn1ncc2c3c4c(c(-c5cn[nH]c5)nc3ccc21)CCCC4 [Compound 7, 3-Methyl-7-(1H-pyrazol-4-yl)-8,9,10,11-tetrahydro-3H-pyrazolo[4,3-a]phenanthridine] | poor STING binder | 
CCc1cc(-c2cn[nH]c2)nc2ccc3[nH]ncc3c12 [Compound 9, 9-Ethyl-7-(1H-pyrazol-4-yl)-3H-pyrazolo[4,3-f]quinoline] | reduced STING binding | 
O=C1c2ccccc2C(=O)N1C1CCc2c(c(-c3cn[nH]c3)nc3ccc4[nH]ncc4c23)C1 (stereo not drawn) [Compound 16, 2-(7-(1H-pyrazol-4-yl)-8,9,10,11-tetrahydro-3H-pyrazolo[4,3-a]phenanthridin-9-yl)isoindoline-1,3-dione] | not well tolerated | 
c1n[nH]cc1-c1nc2ccc3[nH]ncc3c2c2c1CCCC2 [HSD1077, 7-(1H-pyrazol-4-yl)-8,9,10,11-tetrahydro-3H-pyrazolo[4,3-a]phenanthridine] |  | type 1 interferon production on treatment with compound alone (agonism) (RAW ISG Blue cells; 24 hours, no cGAMP): did not induce type 1 interferon production; also recorded: non-significant changes in interferon expression levels; type 1 interferon expression after pre-treatment and cGAMP induction (RAW ISG Blue cells; pre-treatment (1 μM or lower) 2 hours, then 100 μM 2'-3' cGAMP 24 hours): can suppress type-1 interferon expression; also recorded: dose-dependent attenuation in type 1 interferon expression; also recorded: attenuated expression of type 1 interferon in a dose-dependent manner; concentration causing a noticeable decrease in interferon expression (RAW ISG Blue cells; pre-treatment before cGAMP): ≤ 20 nM; type 1 interferon expression after pre-treatment and cGAMP stimulation (THP-1 dual cells): can suppress type-1 interferon expression; also recorded: reduced type 1 interferon expression in a dose-dependent manner; also recorded: attenuated expression of interferon in a dose-dependent manner; phospho-IRF3 level (Raw ISG cells): decreased levels; also recorded: attenuates; phospho-STING level (Raw ISG cells): decreased levels; also recorded: attenuates; murine Interferon-β mRNA levels (RAW ISG Blue macrophages): dose-dependent reduction in murine Interferon-β levels
(2-fluoro-4-(8,9,10,11-tetrahydro-3H-pyrazolo[4,3-a]phenanthridin-7-yl)phenyl) (4-methylpiperazin-1-yl)methanone [Compound 27] | negatively affected STING binding | 
